Tested on: CFLP female mice
Test: Reversal of Adrenaline-Exacerbated Glucose Intolerance in Mice
Type: in vivo
Details: oral gavage, glucose 1 g/kg and adrenaline 300 μg/kg s.c., 0-120 minutes, versus water control, 24 h fasted mice
Protocol: (A) Reversal of Adrenaline-Exacerbated Glucose Intolerance in Mice
CFLP female mice of about 25 g were fasted for 24 hours prior to receiving water (10 ml/kg) or compounds by oral gavage. Thirty minutes later, glucose (1 g/kg) and adrenaline (300 μg/kg) were injected subcutaneously. Blood samples for glucose analysis were taken serially from the tail of each mouse at 0, 30, 60, 90 and 120 minutes after dosing glucose and the results are expressed below as the percentage reduction in the area under the blood glucose curve; the compound treated groups being compared to the water dosed control group. Six mice were used in each treatment group.

SMILES | % Reduction in area under Blood Glucose Curve (10 μmol/kg) [%] | % Reduction in area under Blood Glucose Curve (20 μmol/kg) [%]
c1ccc2c(c1)CN(CC1=NCCN1)C2 [Example 1, 2-[2H-(1,3-Dihydroisoindole)methyl]-4,5-dihydroimidazole] | 40 | 
Clc1cccc2c1CN(CC1=NCCN1)C2 [Example 2, 2-[2H-(4-Chloro-1,3-dihydroisoindole)methyl]-4,5-dihydroimidazole] | 24 | 
Clc1ccc2c(c1)CN(CC1=NCCN1)C2 [Example 3, 2-[2H-(5-Chloro-1,3-dihydroisoindole)methyl]-4,5-dihydroimidazole] |  | 44
